Experiments:
Type in all cases: binding
[1] = target: T1, SW480 colon carcinoma cells lysate proteins (Homo sapiens, UniProt O00764); settings: PreyGene PDXK
T1 sequence (O00764 1-312): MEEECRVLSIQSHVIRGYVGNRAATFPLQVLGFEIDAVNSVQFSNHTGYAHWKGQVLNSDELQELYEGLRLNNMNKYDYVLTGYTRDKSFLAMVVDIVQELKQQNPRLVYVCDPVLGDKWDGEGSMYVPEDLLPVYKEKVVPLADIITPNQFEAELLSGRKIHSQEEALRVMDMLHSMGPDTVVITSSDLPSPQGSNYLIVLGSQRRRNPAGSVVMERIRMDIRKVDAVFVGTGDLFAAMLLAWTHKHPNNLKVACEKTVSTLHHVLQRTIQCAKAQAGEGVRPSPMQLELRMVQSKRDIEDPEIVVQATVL

[2] = target: T2, SW480 colon carcinoma cells lysate proteins (Homo sapiens, UniProt P04264); settings: PreyGene KRT1
T2 sequence (P04264 1-644): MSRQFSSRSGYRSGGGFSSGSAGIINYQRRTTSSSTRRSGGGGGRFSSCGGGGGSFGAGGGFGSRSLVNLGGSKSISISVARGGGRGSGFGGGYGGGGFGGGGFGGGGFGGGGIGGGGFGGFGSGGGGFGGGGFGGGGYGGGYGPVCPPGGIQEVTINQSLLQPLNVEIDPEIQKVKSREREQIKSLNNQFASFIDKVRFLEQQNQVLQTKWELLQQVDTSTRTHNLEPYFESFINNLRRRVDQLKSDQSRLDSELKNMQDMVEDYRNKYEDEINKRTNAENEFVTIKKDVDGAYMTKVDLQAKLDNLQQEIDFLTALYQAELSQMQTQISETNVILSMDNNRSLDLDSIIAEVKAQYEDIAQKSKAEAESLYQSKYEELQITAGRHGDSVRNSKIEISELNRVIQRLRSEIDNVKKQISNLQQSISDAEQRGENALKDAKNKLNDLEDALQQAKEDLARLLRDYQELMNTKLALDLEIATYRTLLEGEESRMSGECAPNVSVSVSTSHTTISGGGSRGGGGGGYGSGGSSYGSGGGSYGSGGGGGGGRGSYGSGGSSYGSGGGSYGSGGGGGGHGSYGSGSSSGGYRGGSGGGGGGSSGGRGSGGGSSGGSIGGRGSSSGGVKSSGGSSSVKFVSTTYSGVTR

[3] = target: SW480 colon carcinoma cells lysate proteins (Homo sapiens, UniProt P68363); settings: PreyGene TUBA1B; SW480 cells
SW480 colon carcinoma cells lysate proteins (Homo sapiens, UniProt P68363), sequence (P68363 whole entry): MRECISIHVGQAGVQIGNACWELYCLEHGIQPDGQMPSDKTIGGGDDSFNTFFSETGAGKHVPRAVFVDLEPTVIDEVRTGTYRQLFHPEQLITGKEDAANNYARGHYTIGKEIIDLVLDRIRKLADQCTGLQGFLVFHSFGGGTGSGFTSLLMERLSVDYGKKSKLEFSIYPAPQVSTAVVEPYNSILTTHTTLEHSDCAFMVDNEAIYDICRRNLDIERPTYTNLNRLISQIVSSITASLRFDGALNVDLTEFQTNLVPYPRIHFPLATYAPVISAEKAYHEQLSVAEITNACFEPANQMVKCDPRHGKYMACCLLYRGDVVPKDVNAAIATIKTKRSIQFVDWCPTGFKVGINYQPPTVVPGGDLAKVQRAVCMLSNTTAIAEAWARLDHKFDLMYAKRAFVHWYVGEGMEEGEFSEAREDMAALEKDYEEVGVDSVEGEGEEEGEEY

[4] = target: T3, SW480 colon carcinoma cells lysate proteins (Homo sapiens, UniProt P78371); settings: PreyGene CCT2; SW480 cells
T3 sequence (P78371 1-535): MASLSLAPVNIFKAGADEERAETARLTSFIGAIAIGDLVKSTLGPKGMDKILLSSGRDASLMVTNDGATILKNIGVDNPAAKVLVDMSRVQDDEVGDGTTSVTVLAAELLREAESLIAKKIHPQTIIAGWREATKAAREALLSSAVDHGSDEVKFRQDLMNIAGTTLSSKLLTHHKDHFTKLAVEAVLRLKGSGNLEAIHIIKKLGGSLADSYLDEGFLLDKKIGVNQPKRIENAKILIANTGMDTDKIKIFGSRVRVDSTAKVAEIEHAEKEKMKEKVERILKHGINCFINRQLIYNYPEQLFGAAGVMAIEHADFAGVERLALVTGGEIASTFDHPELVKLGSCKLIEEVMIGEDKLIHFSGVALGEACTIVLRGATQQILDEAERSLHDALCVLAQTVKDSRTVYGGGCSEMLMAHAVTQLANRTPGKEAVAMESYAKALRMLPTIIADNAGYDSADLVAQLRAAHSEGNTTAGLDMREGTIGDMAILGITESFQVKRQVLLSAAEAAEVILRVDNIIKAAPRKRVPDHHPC

[5] = target: T4, SW480 colon carcinoma cells lysate proteins (Homo sapiens, UniProt Q04837); settings: PreyGene SSBP1; SW480 cells
T4 sequence (Q04837 17-148): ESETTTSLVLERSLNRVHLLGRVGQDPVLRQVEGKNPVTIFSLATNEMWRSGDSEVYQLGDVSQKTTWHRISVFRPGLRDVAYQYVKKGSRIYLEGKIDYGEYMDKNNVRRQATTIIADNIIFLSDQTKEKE

[6] = target: SW480 colon carcinoma cells lysate proteins (Homo sapiens, UniProt Q09666); settings: PreyGene AHNAK; SW480 cells
[7] = target: SW480 colon carcinoma cells lysate proteins (Homo sapiens, UniProt Q71UM5); settings: PreyGene RPS27L; SW480 cells
[8] = target: SW480 colon carcinoma cells lysate proteins (Homo sapiens, UniProt Q9UBR2); settings: PreyGene CTSZ
SW480 colon carcinoma cells lysate proteins (Homo sapiens, UniProt Q9UBR2), sequence (Q9UBR2 62-303): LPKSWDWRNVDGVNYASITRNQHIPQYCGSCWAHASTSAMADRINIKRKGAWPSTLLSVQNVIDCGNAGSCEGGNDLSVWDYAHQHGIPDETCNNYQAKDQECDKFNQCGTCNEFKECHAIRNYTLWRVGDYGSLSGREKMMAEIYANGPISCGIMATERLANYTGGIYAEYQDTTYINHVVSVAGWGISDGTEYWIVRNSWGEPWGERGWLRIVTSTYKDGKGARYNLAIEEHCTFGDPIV

Question: With `C[C@H](Oc1cc(-c2cnn(C3CCNCC3)c2)cnc1N)c1c(Cl)ccc(F)c1Cl` [(5)-crizotinib] as the molecule, how does the AvgP [1] read?
Answer: The AvgP was 0.2207.

Question: And the “SC.Exp. 1-1” value [1]?
Answer: The value was 3.

Question: And the “SC.Exp. 1-2” value [1]?
Answer: Its value is 0.

Question: And the “SC.Exp. 2-1” value [1]?
Answer: The value was 0.

Question: What about the “SC.Exp. 2-2” value [1] of the same molecule?
Answer: The value was 0.

Question: What about the “Sum (SC.Exp.)” value [1] of the same molecule?
Answer: The value was 3.

Question: What about the AvgP [2] of the same molecule?
Answer: Its AvgP is 0.3569.

Question: What about the “SC.Exp. 1-1” value [2] of the same molecule?
Answer: The value was 26.

Question: What about the “SC.Exp. 1-2” value [2] of the same molecule?
Answer: Its value is 24.

Question: And the “SC.Exp. 2-1” value [2]?
Answer: Its value is 5.

Question: And the “SC.Exp. 2-2” value [2]?
Answer: Its value is 3.

Question: What about the “Sum (SC.Exp.)” value [2] of the same molecule?
Answer: Its value is 58.

Question: And the AvgP [3]?
Answer: Its AvgP is 0.

Question: What about the “SC.Exp. 1-1” value [3] of the same molecule?
Answer: Its value is 1.

Question: What about the “SC.Exp. 1-2” value [3] of the same molecule?
Answer: Its value is 1.

Question: And the “SC.Exp. 2-1” value [3]?
Answer: Its value is 0.

Question: And the “SC.Exp. 2-2” value [3]?
Answer: The value was 0.

Question: What about the “SC.Exp. Sum” value [3] of the same molecule?
Answer: Its value is 2.

Question: And the AvgP [4]?
Answer: The AvgP was 0.

Question: What about the “SC.Exp. 1-1” value [4] of the same molecule?
Answer: The value was 9.

Question: What about the “SC.Exp. 1-2” value [4] of the same molecule?
Answer: The value was 11.

Question: And the “SC.Exp. 2-1” value [4]?
Answer: Its value is 3.

Question: What about the “SC.Exp. 2-2” value [4] of the same molecule?
Answer: Its value is 3.

Question: And the “SC.Exp. Sum” value [4]?
Answer: The value was 26.

Question: What about the AvgP [5] of the same molecule?
Answer: The AvgP was 0.

Question: What about the “SC.Exp. 1-1” value [5] of the same molecule?
Answer: Its value is 1.

Question: And the “SC.Exp. 1-2” value [5]?
Answer: The value was 1.

Question: What about the “SC.Exp. 2-1” value [5] of the same molecule?
Answer: The value was 0.

Question: And the “SC.Exp. 2-2” value [5]?
Answer: Its value is 0.

Question: And the “SC.Exp. Sum” value [5]?
Answer: The value was 2.

Question: What about the AvgP [6] of the same molecule?
Answer: Its AvgP is 0.

Question: And the “SC.Exp. 1-1” value [6]?
Answer: The value was 5.

Question: What about the “SC.Exp. 1-2” value [6] of the same molecule?
Answer: The value was 6.

Question: What about the “SC.Exp. 2-1” value [6] of the same molecule?
Answer: Its value is 6.

Question: What about the “SC.Exp. 2-2” value [6] of the same molecule?
Answer: The value was 6.

Question: What about the “SC.Exp. Sum” value [6] of the same molecule?
Answer: The value was 23.

Question: And the AvgP [7]?
Answer: Its AvgP is 0.

Question: And the “SC.Exp. 1-1” value [7]?
Answer: Its value is 0.

Question: What about the “SC.Exp. 1-2” value [7] of the same molecule?
Answer: Its value is 1.

Question: What about the “SC.Exp. 2-1” value [7] of the same molecule?
Answer: Its value is 0.

Question: And the “SC.Exp. 2-2” value [7]?
Answer: The value was 0.

Question: And the “SC.Exp. Sum” value [7]?
Answer: Its value is 1.

Question: What about the AvgP [8] of the same molecule?
Answer: The AvgP was 0.3217.

Question: What about the “SC.Exp. 1-1” value [8] of the same molecule?
Answer: The value was 2.

Question: What about the “SC.Exp. 1-2” value [8] of the same molecule?
Answer: Its value is 2.

Question: What about the “SC.Exp. 2-1” value [8] of the same molecule?
Answer: The value was 0.

Question: What about the “SC.Exp. 2-2” value [8] of the same molecule?
Answer: Its value is 0.

Question: And the “Sum (SC.Exp.)” value [8]?
Answer: Its value is 4.

From patent US9446039B2, “Aminoheteroaryl compounds as MTH1 inhibitors” (CEMM—FORSCHUNGSZENTRUM FÜR MOLEKULARE MEDIZIN GMBH, priority 2012, dated 2016)
